Experimental data reported in paper PMC5218480 (PLoS ONE, 2017).

Test system: MV-4-11 cells
Experiment: Gene expression microarray analysis (Affymetrix PrimeView) and GSEA
Format: cell-based, human
Set-up: RFU PODN (11730768_x_at) / Fold change /veh PODN (11730768_x_at) / RFU LINC00158 (11744669_a_at) / Fold change /veh LINC00158 (11744669_a_at) / RFU DUSP10 (11751237_a_at) / Fold change /veh DUSP10 (11751237_a_at) / RFU ID3 (11757404_x_at) / Fold change /veh ID3 (11757404_x_at) / RFU PLEKHG5 (11737974_s_at) / Fold change /veh PLEKHG5 (11737974_s_at) / RFU LRRC4B (11730491_at) / Fold change /veh LRRC4B (11730491_at) / RFU GIMAP4 (11747438_a_at) / Fold change /veh GIMAP4 (11747438_a_at) / RFU KRT8 (11758183_x_at) / Fold change /veh KRT8 (11758183_x_at) / RFU CNN1 (11734310_a_at) / Fold change /veh CNN1 (11734310_a_at) / RFU VPS37D (11726825_at) / Fold change /veh VPS37D (11726825_at) / RFU C10orf10 (11716522_x_at) / Fold change /veh C10orf10 (11716522_x_at) / RFU KIR2DL2 /// KIR2DL4 /// KIR2DL5A /// KIR2DL5B /// KIR2DS1 /// KIR2DS2 /// KIR2DS3 /// KIR2DS4 /// KIR3DL3 /// KIR3DL3 /// KIR3DS1 (11738374_at) / Fold change /veh KIR2DL2 /// KIR2DL4 /// KIR2DL5A /// KIR2DL5B /// KIR2DS1 /// KIR2DS2 /// KIR2DS3 /// KIR2DS4 /// KIR3DL3 /// KIR3DL3 /// KIR3DS1 (11738374_at) / RFU C1QL1 (11718748_at) / Fold change /veh C1QL1 (11718748_at) / RFU TMPRSS4 (11747572_a_at) / Fold change /veh TMPRSS4 (11747572_a_at) / RFU HAMP (11756126_x_at) / Fold change /veh HAMP (11756126_x_at) / RFU RNFT2 (11725882_a_at) / Fold change /veh RNFT2 (11725882_a_at) / RFU NR4A2 (11747474_a_at) / Fold change /veh NR4A2 (11747474_a_at) / RFU ABCC12 (11746883_a_at) / Fold change /veh ABCC12 (11746883_a_at) / RFU TMEM136 (11760407_x_at) / Fold change /veh TMEM136 (11760407_x_at) / RFU CLDN22 /// WWC2 (11732394_at) / Fold change /veh CLDN22 /// WWC2 (11732394_at) / RFU HLA-DPB1 (11760878_x_at) / Fold change /veh HLA-DPB1 (11760878_x_at) / RFU SPINT1 (11716480_a_at) / Fold change /veh SPINT1 (11716480_a_at) / RFU GAP43 (11754022_s_at) / Fold change /veh GAP43 (11754022_s_at) / RFU A4GNT (11735810_at) / Fold change /veh A4GNT (11735810_at) / RFU PRB3 (11715151_x_at) / Fold change /veh PRB3 (11715151_x_at) / RFU TUBB4B (11761932_at) / Fold change /veh TUBB4B (11761932_at) / RFU CAPN14 (11732068_a_at) / Fold change /veh CAPN14 (11732068_a_at) / RFU TMCC2 (11721928_a_at) / Fold change /veh TMCC2 (11721928_a_at) / RFU IRGQ (11745062_a_at) / Fold change /veh IRGQ (11745062_a_at) / RFU FAM174B (11720279_a_at) / Fold change /veh FAM174B (11720279_a_at) / RFU TMPRSS4 (11748680_a_at) / Fold change /veh TMPRSS4 (11748680_a_at) / RFU FAM212B (11763350_a_at) / Fold change /veh FAM212B (11763350_a_at) / RFU PLEKHG5 (11743358_a_at) / Fold change /veh PLEKHG5 (11743358_a_at) / RFU ZSCAN30 (11745921_a_at) / Fold change /veh ZSCAN30 (11745921_a_at) / RFU CMKLR1 (11741424_a_at) / Fold change /veh CMKLR1 (11741424_a_at) / RFU LOC101060620 /// MAPK8IP1 (11723275_at) / Fold change /veh LOC101060620 /// MAPK8IP1 (11723275_at) / RFU SPTSSB (11747773_x_at) / Fold change /veh SPTSSB (11747773_x_at) / RFU PRSS12 (11739890_at) / Fold change /veh PRSS12 (11739890_at) / RFU BIN1 (11741810_x_at) / Fold change /veh BIN1 (11741810_x_at) / RFU WNT11 (11732464_a_at) / Fold change /veh WNT11 (11732464_a_at) / RFU C10orf10 (11716521_a_at) / Fold change /veh C10orf10 (11716521_a_at) / RFU C5orf56 (11738089_at) / Fold change /veh C5orf56 (11738089_at) / RFU CYB561 (11721691_x_at) / Fold change /veh CYB561 (11721691_x_at) / RFU ANKRD19P (11752326_a_at) / Fold change /veh ANKRD19P (11752326_a_at) / RFU OR2T12 /// OR2T33 /// OR2T8 (11738714_s_at) / Fold change /veh OR2T12 /// OR2T33 /// OR2T8 (11738714_s_at) / RFU VCAN (11748164_a_at) / Fold change /veh VCAN (11748164_a_at) / RFU JSRP1 (11732532_at) / Fold change /veh JSRP1 (11732532_at) / RFU KRTAP10-11 (11738290_x_at) / Fold change /veh KRTAP10-11 (11738290_x_at) / RFU MYO3A (11730013_a_at) / Fold change /veh MYO3A (11730013_a_at) / RFU EBF3 (11725865_a_at) / Fold change /veh EBF3 (11725865_a_at) / RFU CAMK2N1 (11719241_x_at) / Fold change /veh CAMK2N1 (11719241_x_at) / RFU C5orf56 (11738088_a_at) / Fold change /veh C5orf56 (11738088_a_at) / RFU OLFML3 (11715873_a_at) / Fold change /veh OLFML3 (11715873_a_at) / RFU LOC100653217 /// NTM (11731650_a_at) / Fold change /veh LOC100653217 /// NTM (11731650_a_at) / RFU MAPK11 (11762145_a_at) / Fold change /veh MAPK11 (11762145_a_at) / RFU FIZ1 (11724087_x_at) / Fold change /veh FIZ1 (11724087_x_at) / RFU OASL (11726364_x_at) / Fold change /veh OASL (11726364_x_at) / RFU SOX15 (11748057_x_at) / Fold change /veh SOX15 (11748057_x_at) / RFU CD79A (11719716_a_at) / Fold change /veh CD79A (11719716_a_at) / RFU HIST1H1D (11736915_at) / Fold change /veh HIST1H1D (11736915_at) / RFU CASKIN2 (11723855_a_at) / Fold change /veh CASKIN2 (11723855_a_at) / RFU LOC730098 (11760151_x_at) / Fold change /veh LOC730098 (11760151_x_at) / RFU OR4N2 (11742367_at) / Fold change /veh OR4N2 (11742367_at) / RFU PRRT2 (11749266_a_at) / Fold change /veh PRRT2 (11749266_a_at) / RFU SNX32 (11753110_a_at) / Fold change /veh SNX32 (11753110_a_at) / RFU CDHR5 (11726645_a_at) / Fold change /veh CDHR5 (11726645_a_at) / RFU RCAN1 (11760418_a_at) / Fold change /veh RCAN1 (11760418_a_at) / RFU FAM167A (11723789_a_at) / Fold change /veh FAM167A (11723789_a_at) / RFU FAM26E (11764081_at) / Fold change /veh FAM26E (11764081_at) / RFU ISYNA1 (11749810_s_at) / Fold change /veh ISYNA1 (11749810_s_at) / RFU ACY1 (11761880_at) / Fold change /veh ACY1 (11761880_at) / RFU 11764098_at / Fold change /veh 11764098_at / RFU SAMD14 (11745864_x_at) / Fold change /veh SAMD14 (11745864_x_at) / RFU NPB (11741838_a_at) / Fold change /veh NPB (11741838_a_at) / RFU TMPRSS6 (11731388_a_at) / Fold change /veh TMPRSS6 (11731388_a_at) / RFU KRTAP10-2 (11738614_at) / Fold change /veh KRTAP10-2 (11738614_at) / RFU ARHGAP8 /// PRR5-ARHGAP8 (11727945_x_at) / Fold change /veh ARHGAP8 /// PRR5-ARHGAP8 (11727945_x_at) / RFU KRTAP5-7 /// NADSYN1 (11734609_at) / Fold change /veh KRTAP5-7 /// NADSYN1 (11734609_at) / RFU RASL12 (11751679_a_at) / Fold change /veh RASL12 (11751679_a_at) / RFU CDKN2B (11736163_a_at) / Fold change /veh CDKN2B (11736163_a_at) / RFU PRF1 (11729649_at) / Fold change /veh PRF1 (11729649_at) / RFU, ZNF638 /// ZNF638-IT1 / Fold change vs veh, ZNF638 /// ZNF638-IT1 / RFU, PANK3 / Fold change vs veh, PANK3 / RFU, SH3YL1 / Fold change vs veh, SH3YL1 / RFU, ZEB2 / Fold change vs veh, ZEB2 / RFU, NRIP1 / Fold change vs veh, NRIP1 / RFU, PTTG1IP / Fold change vs veh, PTTG1IP / RFU, CAPN2 / Fold change vs veh, CAPN2 / RFU, MED14 / Fold change vs veh, MED14 / RFU, SNORA58 / Fold change vs veh, SNORA58 / RFU, C1orf63 / Fold change vs veh, C1orf63 / RFU, LRRFIP1 / Fold change vs veh, LRRFIP1 / RFU, NDUFAF7 / Fold change vs veh, NDUFAF7 / RFU, SLC12A2 / Fold change vs veh, SLC12A2 / RFU, IBTK / Fold change vs veh, IBTK / RFU, ESF1 / Fold change vs veh, ESF1 / Fold change vs veh, TMEM50B / RFU, TAOK1 / Fold change vs veh, TAOK1 / RFU, ACBD3 / Fold change vs veh, ACBD3 / RFU, TMA16 / Fold change vs veh, TMA16 / RFU, RWDD3 / Fold change vs veh, RWDD3 / RFU, BCAT1 / Fold change vs veh, BCAT1 / RFU, EDEM3 / Fold change vs veh, EDEM3 / RFU, TMEM33 / Fold change vs veh, TMEM33 / RFU, WDR75 / Fold change vs veh, WDR75 / RFU, AHCTF1 / Fold change vs veh, AHCTF1 / RFU, TFRC / Fold change vs veh, TFRC / RFU, ZDHHC17 / Fold change vs veh, ZDHHC17 / RFU, NOM1 / Fold change vs veh, NOM1 / RFU, ARL8B / Fold change vs veh, ARL8B / RFU, ZBTB11 / Fold change vs veh, ZBTB11 / RFU, TAMM41 / Fold change vs veh, TAMM41 / RFU, KIAA1704 /// LOC100996395 / Fold change vs veh, KIAA1704 /// LOC100996395 / RFU, ING1 / Fold change vs veh, ING1 / RFU, TRMT61B / Fold change vs veh, TRMT61B / RFU, FUBP3 / Fold change vs veh, FUBP3 / RFU, TP53 / Fold change vs veh, TP53 / RFU, TNKS2 / Fold change vs veh, TNKS2 / RFU, ZFP14 / Fold change vs veh, ZFP14 / RFU, ACTR2 / Fold change vs veh, ACTR2 / RFU, PPP3R1 / Fold change vs veh, PPP3R1 / RFU, PIK3R1 / Fold change vs veh, PIK3R1 / RFU, HNRNPA1 / Fold change vs veh, HNRNPA1 / RFU, RNF170 / Fold change vs veh, RNF170 / RFU, ZNF28 / Fold change vs veh, ZNF28 / RFU, RNGTT / Fold change vs veh, RNGTT / RFU, OGT / Fold change vs veh, OGT / RFU, BRD1 / Fold change vs veh, BRD1 / RFU, MARS / Fold change vs veh, MARS / RFU, ZNF655 / Fold change vs veh, ZNF655 / RFU, FAHD1 / Fold change vs veh, FAHD1 / RFU, BDP1 / Fold change vs veh, BDP1 / RFU, LRRCC1 / Fold change vs veh, LRRCC1 / RFU, ARID1A / Fold change vs veh, ARID1A / RFU, ZNF146 / Fold change vs veh, ZNF146 / RFU, ZNF330 / Fold change vs veh, ZNF330 / RFU, GPN3 / Fold change vs veh, GPN3 / RFU, C9orf123 / Fold change vs veh, C9orf123 / RFU, N4BP2L2 / Fold change vs veh, N4BP2L2 / RFU, ARFIP1 / Fold change vs veh, ARFIP1 / RFU, FAM179B / Fold change vs veh, FAM179B / RFU, BCL10 / Fold change vs veh, BCL10 / RFU, UHRF1BP1L / Fold change vs veh, UHRF1BP1L / RFU, BET1 / Fold change vs veh, BET1 / RFU, CNOT2 / Fold change vs veh, CNOT2 / RFU, ZNF268 / Fold change vs veh, ZNF268 / Fold change vs veh, ZNF507 / RFU, DGCR2 / Fold change vs veh, DGCR2 / RFU, WDSUB1 / Fold change vs veh, WDSUB1 / Fold change vs veh, HSP90B1 /// MIR3652 / RFU, ADSS / Fold change vs veh, ADSS / RFU, GK / Fold change vs veh, GK / RFU, ZNF148 / Fold change vs veh, ZNF148 / RFU, TAF9 / Fold change vs veh, TAF9 / RFU, SLC1A5 / Fold change vs veh, SLC1A5 / RFU, SLMO2 / Fold change vs veh, SLMO2 / RFU, ABCC4 / Fold change vs veh, ABCC4 / RFU, LOC101060439 /// RAP1B / Fold change vs veh, LOC101060439 /// RAP1B / RFU, RFX7 / Fold change vs veh, RFX7 / RFU, GTPBP10 / Fold change vs veh, GTPBP10 / RFU, CNEP1R1 / Fold change vs veh, CNEP1R1 / RFU, BIVM-ERCC5 /// ERCC5 / Fold change vs veh, BIVM-ERCC5 /// ERCC5 / RFU, ILF3 / Fold change vs veh, ILF3 / RFU 11762660_at / Fold change /veh 11762660_at / RFU VCAN (11757783_s_at) / Fold change /veh VCAN (11757783_s_at) / RFU DDX43 (11728927_at) / Fold change /veh DDX43 (11728927_at) / RFU KRT8 (11758188_x_at) / Fold change /veh KRT8 (11758188_x_at) / RFU NKD1 (11759106_at) / Fold change /veh NKD1 (11759106_at) / RFU SRD5A1 (11742802_a_at) / Fold change /veh SRD5A1 (11742802_a_at) / RFU TPSAB1 /// TPSB2 (11721975_s_at) / Fold change /veh TPSAB1 /// TPSB2 (11721975_s_at) / RFU GSTM3 (11746129_a_at) / Fold change /veh GSTM3 (11746129_a_at) / RFU IL23R (11737362_x_at) / Fold change /veh IL23R (11737362_x_at) / RFU TMEM51 (11727254_a_at) / Fold change /veh TMEM51 (11727254_a_at) / RFU PIWIL2 (11732686_x_at) / Fold change /veh PIWIL2 (11732686_x_at) / RFU ORM1 (11744905_x_at) / Fold change /veh ORM1 (11744905_x_at) / RFU CCDC152 (11743942_at) / Fold change /veh CCDC152 (11743942_at) / RFU ECM1 (11717891_a_at) / Fold change /veh ECM1 (11717891_a_at) / RFU IL23R (11748794_a_at) / Fold change /veh IL23R (11748794_a_at) / RFU TNFAIP8L3 (11732012_x_at) / Fold change /veh TNFAIP8L3 (11732012_x_at) / RFU MBOAT4 (11741988_at) / Fold change /veh MBOAT4 (11741988_at) / RFU 11764193_at / Fold change /veh 11764193_at / RFU TMEM53 (11763286_at) / Fold change /veh TMEM53 (11763286_at) / RFU MAGEB2 (11727129_at) / Fold change /veh MAGEB2 (11727129_at) / RFU TMEM200A (11744735_a_at) / Fold change /veh TMEM200A (11744735_a_at) / RFU CCDC152 (11751479_a_at) / Fold change /veh CCDC152 (11751479_a_at) / RFU FAM211A (11726209_a_at) / Fold change /veh FAM211A (11726209_a_at) / RFU RGS16 (11746705_a_at) / Fold change /veh RGS16 (11746705_a_at) / RFU VCAN (11755009_s_at) / Fold change /veh VCAN (11755009_s_at) / RFU RHOB (11743442_s_at) / Fold change /veh RHOB (11743442_s_at) / RFU RGS16 (11720943_a_at) / Fold change /veh RGS16 (11720943_a_at) / RFU RGS16 (11720944_at) / Fold change /veh RGS16 (11720944_at) / RFU, VPS4B / Fold change vs veh, VPS4B / RFU, CREB1 / Fold change vs veh, CREB1 / RFU, DNAJC13 / Fold change vs veh, DNAJC13 / RFU, GNAQ / Fold change vs veh, GNAQ / RFU, CDK5R1 / Fold change vs veh, CDK5R1 / RFU, ZRANB3 / Fold change vs veh, ZRANB3 / RFU, CUL4A / Fold change vs veh, CUL4A / RFU, CCNY / Fold change vs veh, CCNY / RFU, UFL1 / Fold change vs veh, UFL1 / RFU, COG3 / Fold change vs veh, COG3 / RFU, DIAPH2 / Fold change vs veh, DIAPH2 / RFU, SKA2 / Fold change vs veh, SKA2 / RFU, AFF3 / Fold change vs veh, AFF3 / RFU, LMF1 / Fold change vs veh, LMF1 / RFU, IPO11 / Fold change vs veh, IPO11 / RFU, DFFB / Fold change vs veh, DFFB / RFU, FOXP1 / Fold change vs veh, FOXP1 / RFU, CARD8 / Fold change vs veh, CARD8 / RFU, STRN3 / Fold change vs veh, STRN3 / RFU, ADK / Fold change vs veh, ADK / RFU, RASSF2 / Fold change vs veh, RASSF2 / RFU, WIPF1 / Fold change vs veh, WIPF1 / RFU, LARP1B / Fold change vs veh, LARP1B / RFU, RASA1 / Fold change vs veh, RASA1 / RFU, RB1 / Fold change vs veh, RB1 / RFU, PPFIA1 / Fold change vs veh, PPFIA1 / RFU, MAT2A / Fold change vs veh, MAT2A / RFU, CCT5 / Fold change vs veh, CCT5 / RFU, WDR92 / Fold change vs veh, WDR92 / RFU, CUX1 / Fold change vs veh, CUX1 / RFU, TTC7A / Fold change vs veh, TTC7A / RFU, TMEM135 / Fold change vs veh, TMEM135 / RFU, DEPTOR / Fold change vs veh, DEPTOR / RFU, CPM / Fold change vs veh, CPM / RFU, DNAJB6 / Fold change vs veh, DNAJB6 / RFU, CACNA2D3 / Fold change vs veh, CACNA2D3 / RFU, DTX4 / Fold change vs veh, DTX4 / RFU, TFCP2 / Fold change vs veh, TFCP2 / RFU, GMCL1 /// GMCL1P1 / Fold change vs veh, GMCL1 /// GMCL1P1 / RFU, AEBP2 / Fold change vs veh, AEBP2 / RFU, SNHG1 /// SNORD22 /// SNORD25 /// SNORD26 /// SNORD27 /// SNORD28 /// SNORD29 /// SNORD31 / Fold change vs veh, SNHG1 /// SNORD22 /// SNORD25 /// SNORD26 /// SNORD27 /// SNORD28 /// SNORD29 /// SNORD31 / Fold change (Aza/veh), C12orf56 (ProbeSet 11735607_a_at) / Fold change (ACY-1035/veh), C12orf56 (ProbeSet 11735607_a_at) / Fold change (Aza/veh), FGFR1OP (ProbeSet 11751329_s_at) / Fold change (ACY-1035/veh), FGFR1OP (ProbeSet 11751329_s_at) / Fold change (Aza/veh), VPS36 (ProbeSet 11739960_a_at) / Fold change (ACY-1035/veh), VPS36 (ProbeSet 11739960_a_at) / RFU SYPL1 (11715823_x_at) / Fold change /veh SYPL1 (11715823_x_at) / RFU IGFBP7 (11715501_s_at) / Fold change /veh IGFBP7 (11715501_s_at) / RFU REEP3 (11722064_at) / Fold change /veh REEP3 (11722064_at) / RFU IGLL1 (11728026_x_at) / Fold change /veh IGLL1 (11728026_x_at): dose or concentration left out as unconfirmed
Settings: MV-4-11 cells, 48 hours

SMILES: Nc1ncn([C@@H]2O[C@H](CO)[C@@H](O)[C@H]2O)c(=O)n1 [azacitidine]
- RFU FAM212B (11763350_a_at): 32.55 RFU
